From publication PMC9709406 (Frontiers in Pharmacology, 2022)
Several values for one entry are separate records, joined by “and”; a condition that tells them apart may be missing. Equal values may be shown once. Read-outs that look alike come from different tables or passages of the source.

How the values were obtained:
H1650 cells = experiment: MTT assay for cell proliferation and cytotoxicity, H1650; type: cell-based; settings: Homo sapiens, NCI-H1650, 48 h, H1650, n = 5
Text: (§1) The human cancer cells (H1650, H1975, KYSE70, KYSE410 and KYSE450) were purchased from the Type Culture Collection of the Chinese Academy of Sciences (Shanghai, China). The human immortalized normal esophageal epithelial cell line SHEE was donated by Dr. Enmin Li from the Laboratory of Tumor Pathology (Shantou University Medical College, Shantou, Guangdong, China). Drug-resistant cells (H1650TR, H1975OR, KYSE70TR, KYSE410TR and KYSE450TR) were induced by China-US (Henan) Hormel Cancer Institute. The cellswere cultured in RPMI-1640 complete growth medium containing 100 U/mL penicillin-streptomycin and 10% FBS. Based on the above medium formula, 100 nm/L paclitaxel was added in taxol-resistant cells, 100 nm/L gefitinib was added in gefitinib-resistant cells. The cells were incubated at 37 °C in an atmosphere containing 5% of CO2. The compounds were dissolved in DMSO to make a 50 mM stock solution and were diluted to the concentration of working solutions with complete growth medium before administration.
(§2) Cells were seeded in 96-well plates with 2,200–2,500 cells/well in100 μL. One day after seeding, test compounds with the concentration between 0 and 50 μM were added with 0.1% DMSO as control. Five multiple wells for each concentration. After 48 h, MTT was added and incubated in the plate for 1–4 h in the incubator. The absorbance at 490 nm was measured using a microplate reader (Thermo).

H1975 cells = experiment: MTT assay for cell proliferation and cytotoxicity, H1975; type: cell-based, human; settings: Homo sapiens, NCI-H1975, 48 h, MTT, 48 h, H1975, n = 5; read-out: IC50 48 h H1975
Text: as §1
Cells were seeded in 96-well plates with 2,200–2,500 cells/well in100 μL. One day after seeding, test compounds with the concentration between 0 and 50 μM were added with 0.1% DMSO as control. Five multiple wells for each concentration. […] The absorbance at 490 nm was measured using a microplate reader (Thermo).

SHEE cells = experiment: MTT assay, normal esophageal epithelial cell line SHEE; type: cell-based; settings: Homo sapiens, 48 h, n = 5
Text: as §1, §2

KYSE70 cells = experiment: MTT assay, KYSE70; type: cell-based, human; settings: for IC50: Homo sapiens, KYSE-70, MTT, 48 h, KYSE70, n = 5
Text: as §1, §2

KYSE410 cells = experiment: MTT assay, KYSE410; type: cell-based, human; settings: for IC50: Homo sapiens, KYSE-410, MTT, 48 h, KYSE410, n = 5, read-out: IC50 48 h KYSE410
Text: as §1, §2

KYSE450 cells = experiment: MTT assay, KYSE450; type: cell-based, human; settings: for IC50: Homo sapiens, KYSE-450, MTT, 48 h, KYSE450, n = 5, read-out: IC50 48 h KYSE450; for absorbance 490 nm, single well / mean absorbance 490 nm (row G) / mean absorbance 490 nm minus background (row H): KYSE450
Text: as §1, §2

EGFR = target: T1, EGFR (Homo sapiens, UniProt P00533); experiment: EGFR kinase assay (ELISA); type: biochemical; settings: 25°C
T1 construct: purchased Active MOTIF
T1 sequence (P00533 25-1210): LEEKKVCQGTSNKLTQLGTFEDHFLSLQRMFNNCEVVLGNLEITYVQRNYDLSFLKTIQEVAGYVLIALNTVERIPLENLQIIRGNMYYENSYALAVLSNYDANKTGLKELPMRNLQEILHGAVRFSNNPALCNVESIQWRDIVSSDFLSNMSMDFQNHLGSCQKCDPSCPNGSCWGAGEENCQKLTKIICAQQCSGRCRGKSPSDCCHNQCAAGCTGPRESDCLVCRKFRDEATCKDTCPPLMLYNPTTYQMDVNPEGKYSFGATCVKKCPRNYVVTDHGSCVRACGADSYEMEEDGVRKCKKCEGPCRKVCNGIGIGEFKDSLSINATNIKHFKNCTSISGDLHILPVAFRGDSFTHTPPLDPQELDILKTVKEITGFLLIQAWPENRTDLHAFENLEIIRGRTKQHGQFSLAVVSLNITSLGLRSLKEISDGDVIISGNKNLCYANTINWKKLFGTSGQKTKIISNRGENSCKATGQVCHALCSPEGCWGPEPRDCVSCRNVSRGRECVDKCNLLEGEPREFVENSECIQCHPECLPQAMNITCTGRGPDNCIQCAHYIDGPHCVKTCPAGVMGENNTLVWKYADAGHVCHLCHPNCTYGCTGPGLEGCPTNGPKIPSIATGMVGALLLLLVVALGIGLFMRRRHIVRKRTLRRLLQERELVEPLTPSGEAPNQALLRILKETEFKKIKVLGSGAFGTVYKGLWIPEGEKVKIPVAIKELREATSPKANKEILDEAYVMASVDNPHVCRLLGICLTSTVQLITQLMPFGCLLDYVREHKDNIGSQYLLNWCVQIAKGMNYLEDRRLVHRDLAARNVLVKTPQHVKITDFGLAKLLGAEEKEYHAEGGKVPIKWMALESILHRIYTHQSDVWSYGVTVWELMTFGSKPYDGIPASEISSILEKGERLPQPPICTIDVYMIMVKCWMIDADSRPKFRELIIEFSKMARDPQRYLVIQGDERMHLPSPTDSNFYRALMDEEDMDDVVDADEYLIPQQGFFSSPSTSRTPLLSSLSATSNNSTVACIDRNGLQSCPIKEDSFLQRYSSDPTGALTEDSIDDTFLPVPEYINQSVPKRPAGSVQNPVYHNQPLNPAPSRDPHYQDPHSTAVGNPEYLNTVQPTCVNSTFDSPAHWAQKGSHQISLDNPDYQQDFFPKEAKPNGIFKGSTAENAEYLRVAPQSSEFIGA
Method: Kinase inhibitory activities of the compounds were evaluated using the Protein Tyrosine Kinase Assay Kit (SignalChem (British Columbia, Canada)). The kinase enzyme of EGFR was purchased from Active MOTIF. The ELISA experiments were carried out according the instructions of the kit. Active kinases were incubated with indicated compounds in 1 × reaction buffer containing 20 μM substrate at 25°C for 1 h and 2 h, respectively. The absorbance was read with a multimode plate reader (PerkinElmer, United States) at 450 nm.

[1] = incubation 1 h, read-out: IC50 EGFR 1 h
[2] = incubation 2 h, read-out: IC50 EGFR 2 h
[3] = concentration 12.5 (unit not given)
[4] = concentration 25 (unit not given)
[5] = concentration 50 (unit not given)
[6] = concentration 100 (unit not given)

Row | Structure (SMILES) | IC50 (H1650 cells) | IC50 (H1975 cells) | IC50 (SHEE cells) | IC50 (KYSE70 cells) | blank-corrected absorbance 490 nm relative to control (fraction) (KYSE70 cells; KYSE70, concentration 12.5) | inhibition (1 minus fraction of control) (KYSE70 cells; KYSE70, concentration 12.5) | blank-corrected absorbance 490 nm relative to control (fraction) (KYSE70 cells; KYSE70, concentration 25) | inhibition (1 minus fraction of control) (KYSE70 cells; KYSE70, concentration 25) | blank-corrected absorbance 490 nm relative to control (fraction) (KYSE70 cells; KYSE70, concentration 50) | inhibition (1 minus fraction of control) (KYSE70 cells; KYSE70, concentration 50) | blank-corrected absorbance 490 nm relative to control (fraction) (KYSE70 cells; KYSE70, concentration 100) | inhibition (1 minus fraction of control) (KYSE70 cells; KYSE70, concentration 100) | IC50 (KYSE410 cells) | blank-corrected absorbance 490 nm relative to control (fraction) (KYSE410 cells; KYSE410, concentration 12.5) | inhibition (1 minus fraction of control) (KYSE410 cells; KYSE410, concentration 12.5) | blank-corrected absorbance 490 nm relative to control (fraction) (KYSE410 cells; KYSE410, concentration 25) | inhibition (1 minus fraction of control) (KYSE410 cells; KYSE410, concentration 25) | blank-corrected absorbance 490 nm relative to control (fraction) (KYSE410 cells; KYSE410, concentration 50) | inhibition (1 minus fraction of control) (KYSE410 cells; KYSE410, concentration 50) | blank-corrected absorbance 490 nm relative to control (fraction) (KYSE410 cells; KYSE410, concentration 100) | also measured
1 | Clc1ccc(-n2cc(-c3cccc(Nc4ncnc5cc6c(cc45)OCCOCCOCCO6)c3)nn2)cc1 [compound 3b] | 7.81 ± 0.46 µM | > 50 µM | 6.03 ± 0.48 µM | 8.85 ± 0.67 µM | 0.2939 | 0.7061 | 0.2786 | 0.7214 | 0.1882 | 0.8118 | 0.1691 | 0.8309 | 10.7 ± 0.86 µM | 0.4136 | 0.5864 | 0.4139 | 0.5861 | 0.3164 | 0.6836 | 0.1744 | inhibition (1 minus fraction of control) (KYSE410 cells; KYSE410, concentration 100): 0.8256; IC50 (KYSE450 cells): 11.6 ± 1.02 µM; IC50 (EGFR; [1]): 3.26 µM; IC50 (EGFR; [2]): 71.7 µM; melting point: 132 to 135 °C
2 | COc1ccccc1-n1cc(-c2cccc(Nc3ncnc4cc5c(cc34)OCCOCCOCCO5)c2)nn1 [compound 3d] | 10.8 ± 0.89 µM | 19.4 ± 1.21 µM | 7.2 ± 0.71 µM | 7.35 ± 0.7 µM | 0.1496 | 0.8504 | 0.05438 | 0.9456 | 0.05391 | 0.9461 | 0.08017 | 0.9198 | 8.67 ± 0.71 µM | 0.2787 | 0.7213 | -0.00175 | 1.002 | 0.004317 | 0.9957 | 0.02345 | inhibition (1 minus fraction of control) (KYSE410 cells; KYSE410, concentration 100): 0.9766; IC50 (KYSE450 cells): 13.5 ± 1.21 µM; absorbance 490 nm, single well (KYSE450 cells; [3]): 0.4487 and 0.4214 and 0.4264 and 0.4518; mean absorbance 490 nm (row G) (KYSE450 cells; [3]): 0.4371; mean absorbance 490 nm minus background (row H) (KYSE450 cells; [3]): 0.3824; absorbance 490 nm, single well (KYSE450 cells; [4]): 0.0614 and 0.062 and 0.0618; mean absorbance 490 nm (row G) (KYSE450 cells; [4]): 0.06165; mean absorbance 490 nm minus background (row H) (KYSE450 cells; [4]): 0.00697; absorbance 490 nm, single well (KYSE450 cells; [5]): 0.0565 and 0.0602 and 0.0592 and 0.0604; mean absorbance 490 nm (row G) (KYSE450 cells; [5]): 0.05908; mean absorbance 490 nm minus background (row H) (KYSE450 cells; [5]): 0.004395; absorbance 490 nm, single well (KYSE450 cells; [6]): 0.0606 and 0.0657 and 0.0613 and 0.0623; mean absorbance 490 nm (row G) (KYSE450 cells; [6]): 0.06248; mean absorbance 490 nm minus background (row H) (KYSE450 cells; [6]): 0.007795; IC50 (EGFR; [1]): 5.14 µM; IC50 (EGFR; [2]): 26 µM; melting point: 121 to 124 °C
3 | Clc1ccccc1-n1cc(-c2cccc(Nc3ncnc4cc5c(cc34)OCCOCCOCCO5)c2)nn1 [compound 3e] | 5.61 ± 0.3 µM | 13.1 ± 1.02 µM | 10.3 ± 0.84 µM | 7.75 ± 0.68 µM | 0.1936 | 0.8064 | 0.0586 | 0.9414 | 0.07267 | 0.9273 | 0.08298 | 0.917 | 11.7 ± 1.01 µM | 0.4649 | 0.5351 | 0.2124 | 0.7876 | 0.02952 | 0.9705 | 0.05985 | inhibition (1 minus fraction of control) (KYSE410 cells; KYSE410, concentration 100): 0.9402; IC50 (KYSE450 cells): 21.8 ± 1.47 µM; absorbance 490 nm, single well (KYSE450 cells; [3]): 0.5603 and 0.5422 and 0.5648 and 0.5469; mean absorbance 490 nm (row G) (KYSE450 cells; [3]): 0.5535; mean absorbance 490 nm minus background (row H) (KYSE450 cells; [3]): 0.4989; absorbance 490 nm, single well (KYSE450 cells; [4]): 0.3988 and 0.3524 and 0.3487 and 0.3334; mean absorbance 490 nm (row G) (KYSE450 cells; [4]): 0.3583; mean absorbance 490 nm minus background (row H) (KYSE450 cells; [4]): 0.3036; absorbance 490 nm, single well (KYSE450 cells; [5]): 0.0685 and 0.0639 and 0.0619 and 0.065 and 0.0672; mean absorbance 490 nm (row G) (KYSE450 cells; [5]): 0.0653; mean absorbance 490 nm minus background (row H) (KYSE450 cells; [5]): 0.01062; absorbance 490 nm, single well (KYSE450 cells; [6]): 0.0642 and 0.0659 and 0.0644 and 0.0663; mean absorbance 490 nm (row G) (KYSE450 cells; [6]): 0.0652; mean absorbance 490 nm minus background (row H) (KYSE450 cells; [6]): 0.01052; IC50 (EGFR; [1]): 1.29 µM; IC50 (EGFR; [2]): 4.41 µM; melting point: 125 to 127 °C
